Measurements from PubChem BioAssay (NCI).
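Tested at 5 concentrations; 48 h exposure; 96-well plates; endpoints linearly interpolated, else capped at highest concentration. GI50 marks 50% less growth. The concentration for full growth arrest is given as TGI.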

Columns and labels:
Assay in all cases: DTP human tumour cell line panel, 48 h
[1] = test system: UACC-257 melanoma
[2] = test system: UO-31 renal
[3] = test system: SF-539 CNS
[4] = test system: RPMI-8226 leukemia
[5] = test system: LOX IMVI melanoma
[6] = test system: NCI-H522 lung
[7] = test system: SW-620 colon
[8] = test system: HT29 colon
[9] = test system: TK-10 renal
[10] = test system: HCC-2998 colon
[11] = test system: SF-268 CNS
[12] = test system: DU-145 prostate
[13] = test system: ACHN renal
[14] = test system: PC-3 prostate
[15] = test system: MDA-MB-435
[16] = test system: SF-295 CNS
[17] = test system: SK-MEL-2 melanoma
[18] = test system: HOP-92 NSCLC
[19] = test system: OVCAR-8 ovarian
[20] = test system: SN12C renal
[21] = test system: UACC-62 melanoma
[22] = test system: M14 melanoma
[23] = test system: NCI-H23 lung
[24] = test system: SK-MEL-5 melanoma
[25] = test system: CCRF-CEM leukemia
[26] = test system: SK-OV-3 ovarian
[27] = test system: HCT-15 colon
[28] = test system: KM12 colon
[29] = test system: SK-MEL-28 melanoma
[30] = test system: HCT-116 colon
[31] = test system: OVCAR-5 ovarian
[32] = test system: T-47D breast
[33] = test system: OVCAR-3 ovarian
[34] = test system: U251 CNS
[35] = test system: K-562 leukemia
[36] = test system: IGROV1 ovarian
[37] = test system: A549 NSCLC
[38] = test system: BT-549 breast
[39] = test system: EKVX NSCLC
[40] = test system: MDA-MB-231 breast
[41] = test system: MOLT-4 leukemia
[42] = test system: 786-0 renal
[43] = test system: OVCAR-4 ovarian
[44] = test system: COLO 205 colon
[45] = test system: NCI/ADR-RES ovarian
[46] = test system: MCF7 breast
[47] = test system: NCI-H460 lung
[48] = test system: CAKI-1 renal
[49] = test system: HS 578T breast
[50] = test system: SNB-19 CNS
[51] = test system: HOP-62 NSCLC
[52] = test system: SNB-75 CNS

## C=CCC(N[C@H](CO)c1ccccc1)c1cn(S(=O)(=O)c2ccc(C)cc2)c2ccccc12 (stereo partly drawn)
[1]
  GI50: 10.7 µM
  TGI: 26.7 µM
[2]
  GI50: 94.8 µM
  TGI: > 100 µM
[3]
  GI50: 21.4 µM
  TGI: 38.2 µM
[4]
  GI50: 6.85 µM
  TGI: 46.2 µM
[5]
  GI50: 13.7 µM
  TGI: 27 µM
[6]
  GI50: 18.6 µM
  TGI: 47.7 µM
[7]
  GI50: 31.8 µM
  TGI: 85.9 µM
[8]
  GI50: 31.2 µM
  TGI: > 100 µM
[9]
  GI50: 3.62 µM
  TGI: 18 µM
[10]
  GI50: 15.8 µM
  TGI: 33.4 µM
[11]
  GI50: > 100 µM
  TGI: > 100 µM
[12]
  GI50: 26.7 µM
  TGI: 67.2 µM
[13]
  GI50: 18 µM
  TGI: 45.2 µM
[14]
  GI50: 17.8 µM
  TGI: 77.1 µM
[15]
  GI50: 19 µM
  TGI: 46.8 µM
[16]
  GI50: 8.19 µM
  TGI: 34.8 µM
[17]
  GI50: 32.2 µM
  TGI: > 100 µM
[18]
  GI50: 24.9 µM
  TGI: > 100 µM
[19]
  GI50: 10.8 µM
  TGI: 29.5 µM
[20]
  GI50: 16.9 µM
  TGI: 32.2 µM
[21]
  GI50: 15.1 µM
  TGI: 29.7 µM
[22]
  GI50: 14.5 µM
  TGI: 31.5 µM
[23]
  GI50: 20.3 µM
  TGI: 43.5 µM
[24]
  GI50: 26.1 µM
  TGI: 43.8 µM
[25]
  GI50: 22.6 µM
  TGI: 76.7 µM
[26]
  GI50: 59.7 µM
  TGI: > 100 µM
[27]
  GI50: 23.7 µM
  TGI: 60.2 µM
[28]
  GI50: 19.8 µM
  TGI: 68.4 µM
[29]
  GI50: 41.6 µM
  TGI: > 100 µM
[30]
  GI50: 17 µM
  TGI: 31.6 µM
[31]
  GI50: > 100 µM
  TGI: > 100 µM
[32]
  GI50: 55.9 µM
  TGI: > 100 µM
[33]
  GI50: > 100 µM
  TGI: > 100 µM
[34]
  GI50: 17.6 µM
  TGI: 36 µM
[35]
  GI50: 2.72 µM
[36]
  GI50: 14.6 µM
  TGI: 47.3 µM
[37]
  GI50: 12.7 µM
  TGI: 32.4 µM
[38]
  GI50: 20.5 µM
  TGI: 46.5 µM
[39]
  GI50: 25.2 µM
  TGI: 74.8 µM
[40]
  GI50: 10.7 µM
  TGI: 32.3 µM
[41]
  GI50: 15.2 µM
  TGI: 41.4 µM
[42]
  GI50: > 100 µM
  TGI: > 100 µM
[43]
  GI50: 73.7 µM
  TGI: > 100 µM
[44]
  GI50: 35.3 µM
  TGI: > 100 µM
[45]
  GI50: 18.9 µM
  TGI: 46.2 µM
[46]
  GI50: > 100 µM
  TGI: > 100 µM
[47]
  GI50: > 100 µM
  TGI: > 100 µM
[48]
  GI50: 11.5 µM
  TGI: 37.3 µM
[49]
  GI50: 24.3 µM
  TGI: 60.5 µM
[50]
  GI50: 60.8 µM
  TGI: > 100 µM
[51]
  GI50: 16.8 µM
  TGI: 33.5 µM
[52]
  GI50: 66.2 µM
  TGI: > 100 µM
